Experimental data taken from US8420830B2, “Macrocyclic factor VIIa inhibitors useful as anticoagulants” (Bristol-Myers Squibb Company, priority 2006, dated 2013).
“And” between values parts separate entries of the source, which are not always exact repeats. Equal values may be shown once. Where a name gives a salt, the structure may show the parent alone.

The molecules below were run against T1, Factor VIIa (Homo sapiens, UniProt P08709) (assay: Factor VIIa assay). Conditions: measured in the Factor VIIa assay described above; several values in a cell are repeat determinations.
T1 construct: purchased Haematologic Technologies (purified) or Novo Nordisk (recombinant)
T1 sequence (P08709 213-466 limits assumed): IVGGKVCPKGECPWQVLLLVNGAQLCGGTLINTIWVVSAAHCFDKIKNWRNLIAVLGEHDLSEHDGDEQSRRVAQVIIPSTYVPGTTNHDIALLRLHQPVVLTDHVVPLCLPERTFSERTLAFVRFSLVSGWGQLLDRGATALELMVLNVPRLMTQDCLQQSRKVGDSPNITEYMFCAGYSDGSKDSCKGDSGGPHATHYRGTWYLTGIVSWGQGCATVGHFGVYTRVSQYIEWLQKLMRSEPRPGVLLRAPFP
T1 sequence (P08709 61-212 limits assumed): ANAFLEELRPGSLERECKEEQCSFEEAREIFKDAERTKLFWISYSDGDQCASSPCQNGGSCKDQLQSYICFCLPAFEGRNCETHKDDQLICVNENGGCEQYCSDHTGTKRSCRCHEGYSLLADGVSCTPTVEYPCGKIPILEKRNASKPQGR
T1 sequence (P13726 33-251 partner limits assumed): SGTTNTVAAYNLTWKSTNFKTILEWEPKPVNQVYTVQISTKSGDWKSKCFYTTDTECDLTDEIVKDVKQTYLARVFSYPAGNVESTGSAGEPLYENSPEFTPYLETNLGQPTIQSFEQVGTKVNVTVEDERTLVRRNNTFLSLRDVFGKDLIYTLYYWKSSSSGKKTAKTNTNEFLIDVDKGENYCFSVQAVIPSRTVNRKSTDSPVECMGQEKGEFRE
Type: biochemical

SMILES	Ki
CCO[C@H]1COC(=O)Nc2ccc(S(=O)(=O)C3CC3)c(c2)CN(C)C(=O)[C@H](Nc2ccc3cc[nH]c(=O)c3c2)c2ccc1c(C)c2 (single isomer, unassigned) [Example 40]	1.57 nM
Cc1cc2ccc1[C@@H](C)CCC(=O)Nc1ccc(OC(F)(F)F)c(c1)CN(C)C(=O)[C@@H]2Nc1ccc2c(F)c[nH]c(=O)c2c1 (single isomer, unassigned) [Example 42]	27.6 nM
COc1cc2cc(OC)c1CCOC(=O)Nc1cccc(c1)[C@@H](CC(=O)O)NC(=O)[C@@H]2Nc1ccc2nc[nH]c(=O)c2c1 [Example 13, [(2R,5R)-17,20-Dimethoxy-3,12-dioxo-2-(4-oxo-3,4-dihydro-quinazolin-6-ylamino)-13-oxa-4,11-diaza-tricyclo[14.2.2.1^6,10]henicosa-1(19),6,8,10(21),16(20),17-hexaen-5-yl]-acetic acid]	24 nM and 40.4 nM
Cc1cc2cc(C)c1CCOC(=O)Nc1cccc(c1)CN(C)C(=O)C2Nc1ccc2cc[nH]c(=O)c2c1 (stereo not shown) [Example 14, 4,17,20-Trimethyl-2-(1-oxo-1,2-dihydro-isoquinolin-7-ylamino)-13-oxa-4,11-diaza-tricyclo[14.2.2.1^6,10]henicosa-1(19),6,8,10(21),16(20),17-hexaene-3,12-dione]	1520 nM
CCc1cc2ccc1[C@@H](C)COC(=O)Nc1ccc(S(=O)(=O)C3CC3)c(c1)CN(C)C(=O)[C@@H]2Nc1ccc2cc[nH]c(=O)c2c1 [Example 18, (2R,15R)-7-Cyclopropanesulfonyl-17-ethyl-4,15-dimethyl-2-(1-oxo-1,2-dihydro-isoquinolin-7-ylamino)-13-oxa-4,11-diaza-tricyclo[14.2.2.1^6,10]henicosa-1(19),6,8,10(21),16(20),17-hexaene-3,12-dione]	0.96 nM
CC[C@H]1COC(=O)Nc2ccc(S(=O)(=O)C3CC3)c(c2)CN(C)C(=O)[C@H](Nc2ccc3nc[nH]c(=O)c3c2)c2ccc1cc2 [Example 65, (2R,15R)-7-Cyclopropanesulfonyl-15-ethyl-4-methyl-2-(4-oxo-3,4-dihydro-quinazolin-6-ylamino)-13-oxa-4,11-diaza-tricyclo[14.2.2.1^6,10]henicosa-1(19),6,8,10(21),16(20),17-hexaene-3,12-dione]	29.4 nM and 34 nM
Cc1cc2ccc1[C@@H](C)COC(=O)Nc1ccc(S(=O)(=O)C3CC3)c(c1)CN(C)C(=O)[C@@H]2Nc1ccc2nc[nH]c(=O)c2c1 [Example 76, (2R,15R)-7-Cyclopropanesulfonyl-4,15,17-trimethyl-2-(4-oxo-3,4-dihydro-quinazolin-6-ylamino)-13-oxa-4,11-diaza-tricyclo[14.2.2.1^6,10]henicosa-1(19),6,8,10(21),16(20),17-hexaene-3,12-dione trifluoroacetate]	0.69 nM and 0.86 nM and 0.87 nM and 0.96 nM and 1.14 nM and 1.22 nM
Cc1cc2ccc1[C@@H](C)COC(=O)Nc1ccc(S(=O)(=O)C3CC3)c(c1)CN(C)C(=O)[C@@H]2Nc1cc2c(=O)[nH]cnc2cc1F [Example 78, (2R,15R)-7-Cyclopropanesulfonyl-2-(7-fluoro-4-oxo-3,4-dihydro-quinazolin-6-ylamino)-4,15,17-trimethyl-13-oxa-4,1-diaza-tricyclo[14.2.2.1^6,10]henicosa-1(19),6,8,10(21),16(20),17-hexaene-3,12-dione]	1.35 nM and 1.38 nM
Cc1cc2ccc1[C@@H](C)COC(=O)Nc1ccc(S(=O)(=O)C3CC3)c(c1)CN(C)C(=O)[C@@H]2Nc1ccc2cc[nH]c(=O)c2c1 [Example 79, (2R,15R)-7-Cyclopropanesulfonyl-4,15,17-trimethyl-2-(1-oxo-1,2-dihydro-isoquinolin-7-ylamino)-13-oxa-4,1-diaza-tricyclo[14.2.2.1^6,10]henicosa-1(19),6,8,10(21),16(20),17-hexaene-3,12-dione]	0.88 nM
COc1cc2ccc1[C@@H](C)COC(=O)Nc1ccc(S(=O)(=O)C3CC3)c(c1)CN(C)C(=O)[C@@H]2Nc1ccc2cc[nH]c(=O)c2c1 [Example 82, (2R,15R)-7-Cyclopropanesulfonyl-17-methoxy-4,15-dimethyl-2-(1-oxo-1,2-dihydro-isoquinolin-7-ylamino)-13-oxa-4,11-diaza-tricyclo[14.2.2.1^6,10]henicosa-1(19),6,8,10(21),16(20),17-hexaene-3,12-dione]	0.61 nM
C[C@H]1COC(=O)Nc2ccc(S(=O)(=O)C3CC3)c(c2)CN(C)C(=O)[C@H](Nc2ccc3cc[nH]c(=O)c3c2)c2ccc1c(Cl)c2 [Example 84, (2R,15R)-17-Chloro-7-cyclopropanesulfonyl-4,15-dimethyl-2-(1-oxo-1,2-dihydro-isoquinolin-7-ylamino)-13-oxa-4,11-diaza-tricycle [14.2.2.1^6,10]henicosa-1(19),6,8,10(21),16(20),17-hexaene-3,12-dione]	1.44 nM
Cc1cc2ccc1[C@@H](C)COC(=O)Nc1ccc(N3CCCCS3(=O)=O)c(c1)CN(C)C(=O)[C@@H]2Nc1ccc2cc[nH]c(=O)c2c1 [Example 86, (2R,15R)-7-(1,1-Dioxo-1λ^6-perhydro-1,2-thiazin-2-yl)-4,15,17-trimethyl-2-(1-oxo-1,2-dihydro-isoquinolin-7-ylamino)-13-oxa-4,11-diaza-tricyclo[14.2.2.1^6,10]henicosa-1(19),6,8,10(21),16(20),17-hexaene-3,12-dione]	1.95 nM
COC(=O)N1CC(=O)Nc2ccc(S(=O)(=O)C(C)C)c(c2)CNC(=O)C(Nc2ccc3nc[nH]c(=O)c3c2)c2cc(C)c(c(C)c2)C1 (stereo not shown) [Example 117, 17,20-Dimethyl-3,12-dioxo-2-(4-oxo-3,4-dihydro-quinazolin-6-ylamino)-7-(propane-2-sulfonyl)-4,11,14-triaza-tricyclo[14.2.2.1^6,10]henicosa-1(19),6,8,10(21),16(20),17-hexaene-14-carboxylic acid methyl ester trifluoroacetate]	21.9 nM
CCC(=O)N1CC(=O)Nc2ccc(S(=O)(=O)C(C)C)c(c2)CNC(=O)C(Nc2ccc3nc[nH]c(=O)c3c2)c2cc(C)c(c(C)c2)C1 (stereo not shown) [Example 118, 17,20-Dimethyl-2-(4-oxo-3,4-dihydro-quinazolin-6-ylamino)-7-(propane-2-sulfonyl)-14-propionyl-4,11,14-triaza-tricyclo[14.2.2.1^6,10]henicosa-1(19),6,8,10(21),16(20),17-hexaene-3,12-dione trifluoroacetate]	28.1 nM
CCN1CC(=O)Nc2ccc(S(=O)(=O)C(C)C)c(c2)CNC(=O)C(Nc2ccc3nc[nH]c(=O)c3c2)c2cc(C)c(c(C)c2)C1 (stereo not shown) [Example 121, 14-Ethyl-17,20-dimethyl-2-(4-oxo-3,4-dihydro-quinazolin-6-ylamino)-7-(propane-2-sulfonyl)-4,11,14-triaza-tricyclo[14.2.2.1^6,10]henicosa-1(19),6,8,10(21),16(20),17-hexaene-3,12-dione bistrifluoroacetate]	23.6 nM
Cc1cc2cc(C)c1CN(C(C)C)CC(=O)Nc1ccc(S(=O)(=O)C(C)C)c(c1)CNC(=O)C2Nc1ccc2nc[nH]c(=O)c2c1 (stereo not shown) [Example 124, 14-Isopropyl-17,20-dimethyl-2-(4-oxo-3,4-dihydro-quinazolin-6-ylamino)-7-(propane-2-sulfonyl)-4,11,114-triaza-tricyclo[14.2.2.1^6,10]henicosa-1(19),6,8,10(21),06(20),17-hexaene-3,12-dione bistrifluoroacetate]	33.2 nM
CC(=O)N1CC(=O)Nc2ccc(S(=O)(=O)C(C)C)c(c2)CNC(=O)C(Nc2ccc3cc[nH]c(=O)c3c2)c2cc(C)c(c(C)c2)C1 (stereo not shown) [Example 128, 14-Acetyl-17,20-dimethyl-2-(1-oxo-1,2-dihydro-isoquinolin-7-ylamino)-7-(propane-2-sulfonyl)-4,11,14-triaza-tricyclo[14.2.2.1^6,10]henicosa-1(19),6,8,10(21),16(20),17-hexaene-3,12-dione trifluoroacetate]	26.6 nM
CCOC(=O)CCN1Cc2cccc(c2)NC(=O)OCCc2c(C)cc(cc2C)[C@@H](Nc2ccc3cc[nH]c(=O)c3c2)C1=O [Example 144, 3-[17,20-Dimethyl-3,12-dioxo-2-(1-oxo-1,2-dihydro-isoquinolin-7-ylamino)-13-oxa-4,11-diaza-tricyclo[14.2.2.1^6,10]henicosa-1(19),6,8,10(21),16(20),17-hexaen-4-yl]-propionic acid ethyl ester]	3100 nM
Cc1cc2cc(C)c1CCOC(=O)Nc1cccc(c1)CN(CCC(=O)O)C(=O)C2Nc1ccc2cc[nH]c(=O)c2c1 (stereo not shown) [Example 145, 3-[17,20-Dimethyl-3,12-dioxo-2-(1-oxo-1,2-dihydro-isoquinolin-7-ylamino)-13-oxa-4,11-diaza-tricyclo[14.2.2.1^6,10]henicosa-1(19),6,8,10(21),16(20),17-hexaen-4-yl]-propionic acid]	1300 nM
Cc1cc2ccc1[C@@H](C)COC(=O)Nc1cccc(c1)CN(CCNC(=O)OC(C)(C)C)C(=O)[C@@H]2Nc1ccc2cc[nH]c(=O)c2c1 [Example 148, {2-[(2R,15R)-15,17-Dimethyl-3,12-dioxo-2-(1-oxo-1,2-dihydro-isoquinolin-7-ylamino)-13-oxa-4,11-diaza-tricyclo[14.2.2.1^6,10]henicosa-1(19),6,8,10(21),16(20),17-hexaen-4-yl]-ethyl}-carbamic acid tert-butyl ester]	2530 nM
Cc1cc2ccc1[C@@H](C)COC(=O)Nc1cccc(c1)CN(CCN)C(=O)[C@@H]2Nc1ccc2cc[nH]c(=O)c2c1 [Example 149, (2R,15R)-4-(2-Amino-ethyl)-15,17-dimethyl-2-(1-oxo-1,2-dihydro-isoquinolin-7-ylamino)-13-oxa-4,11-diaza-tricyclo[14.2.2.1^6,10]henicosa-1(19),6,8,10(21),16(20),17-hexaene-3,12-dione]	1210 nM
Cc1cc2ccc1[C@@H](C)COC(=O)Nc1cccc(c1)CN(CCO)C(=O)[C@@H]2Nc1ccc2cc[nH]c(=O)c2c1 [Example 151, (2R,15R)-4-(2-Hydroxy-ethyl)-15,17-dimethyl-2-(1-oxo-1,2-dihydro-isoquinolin-7-ylamino)-13-oxa-4,11-diaza-tricyclo[14.2.2.1^6,10]henicosa-1(19),6,8,10(21),16(20),17-hexaene-3,12-dione]	1120 nM
